What was measured:
[1] = system: Zucker Diabetic Fatty (ZDF) rats (ZDF/Crl-Lepr^fa); test: oral glucose tolerance test in overnight fasted ZDF rats (1st Example); assay type: in vivo, rat; details: male ZDF rats
Method: According to a first example an oral glucose tolerance test is performed in overnight fasted 9-weeks old male Zucker Diabetic Fatty (ZDF) rats (ZDF/Crl-Lepr^fa). A pre-dose blood sample is obtained by tail bleed. Blood glucose is measured with a glucometer, and the animals are randomized for blood glucose (n=5/group). Subsequently, the groups receive a single oral administration of either vehicle alone (0.5% aqueous hydroxyethylcellulose containing 3 mM HCl and 0.015% Polysorbat 80) or vehicle containing either the glucopyranosyl-substituted benzene derivative or the DPP IV inhibitor or the combination of the glucopyranosyl-substituted benzene derivative with the DPP IV inhibitor. The animals receive an oral glucose load (2 g/kg) 30 min after compound administration. Blood glucose is measured in tail blood 30 min, 60 min, 90 min, 120 min, and 180 min after the glucose challenge. Glucose excursion is quantified by calculating the reactive glucose AUC. The data are presented as mean±SEM. The two-sided unpaired Student t-test is used for statistical comparison of the control group and the active groups.
“Cpd. A” is the DPP IV inhibitor 1-[(4-methyl-quinazolin-2-yl)methyl]-3-methyl-7-(2-butyn-1-yl)-8-(3-(R)-amino-piperidin-1-yl)-xanthine at a dose of 1 mg/kg. Cpd. […]

[2] = system: Sprague Dawley rats (Crl:CD(SD)); test: oral glucose tolerance test in overnight fasted Sprague Dawley rats (3rd Example); assay type: in vivo, rat; details: male Sprague Dawley rats, not statistically significant
Method: (§1) According to a second example an oral glucose tolerance test is performed in overnight fasted male Sprague Dawley rats (Crl:CD(SD)) with a body weight of about 200 g. A pre-dose blood sample is obtained by tail bleed. Blood glucose is measured with a glucometer, and the animals are randomized for blood glucose (n=5/group). Subsequently, the groups receive a single oral administration of either vehicle alone (0.5% aqueous hydroxyethylcellulose containing 0.015% Polysorbat 80) or vehicle containing either the glucopyranosyl-substituted benzene derivative or the DPPIV inhibitor or the combination of the glucopyranosyl-substituted benzene derivative with the DPPIV inhibitor. The animals receive an oral glucose load (2 g/kg) 30 min after compound administration. Blood glucose is measured in tail blood 30 min, 60 min, 90 min, and 120 min after the glucose challenge. Glucose excursion is quantified by calculating the reactive glucose AUC. The data are presented as mean±S.E.M. Statistical comparisons are conducted by Student's t test.
In a third example the same experimental setting is employed as in the second example as described herein before. The glucopyranosyl-substituted benzene derivative (9), i.e. 1-chloro-4-(β-D-glucopyranos-1-yl)-2-[4-((S)-tetrahydrofuran-3-yloxy)-benzyl]-benzene, is administered at a dose of 3 mg/kg. […]

[3] = system: Sprague Dawley rats (Crl:CD(SD)); test: oral glucose tolerance test in overnight fasted Sprague Dawley rats (2nd Example); assay type: in vivo, rat; details: male Sprague Dawley rats, not statistically significant
Method: as §1
“Cpd. A” is the glucopyranosyl-substituted benzene derivative (9), i.e. 1-chloro-4-(β-D-glucopyranos-1-yl)-2-[4-((S)-tetrahydrofuran-3-yloxy)-benzyl]-benzene, administered at a dose of 3 mg/kg. The DPPIV inhibitor saxagliptin is administered at a dose of 0.3 mg/kg. […]

[4] = in the diabetic, metformin on its own; cited from earlier work
[5] = single oral dose 3 mg/kg 30 min before glucose load 2 g/kg

## CC#CCn1c(N2CCC[C@@H](N)C2)nc2c1c(=O)n(Cc1nc(C)c3ccccc3n1)c(=O)n2C [Cpd. A, 1-[(4-methyl-quinazolin-2-yl)methyl]-3-methyl-7-(2-butyn-1-yl)-8-(3-(R)-amino-piperidin-1-yl)-xanthine]
[1]; single oral dose 1 mg/kg 30 min before oral glucose load 2 g/kg
  reduction of glucose excursion (reactive glucose AUC): 56%

## N[C@@H](CC(=O)N1CCn2c(nnc2C(F)(F)F)C1)Cc1cc(F)c(F)cc1F [sitagliptin, (3R)-3-amino-1-[3-(trifluoromethyl)-5,6,7,8-tetrahydro-5H-[1,2,4]triazolo[4,3-a]pyrazin-7-yl]-4-(2,4,5-trifluorophenyl)butan-1-one, reference compound]
[2]; single oral dose 10 mg/kg 30 min before glucose load 2 g/kg
  reduction of glucose excursion (reactive glucose AUC): 16%

## N#C[C@@H]1C[C@@H]2C[C@@H]2N1C(=O)[C@@H](N)C12CC3CC(CC(O)(C3)C1)C2 [saxagliptin, (1S,3S,5S)-2-{(2S)-2-amino-2-(3-hydroxyadamantan-1-yl)acetyl}-2-azabicyclo[3.1.0]hexane-3-carbonitrile, reference compound]
[3]; single oral dose 0.3 mg/kg 30 min before glucose load 2 g/kg
  reduction of glucose excursion (reactive glucose AUC): 12%

## CN(C)C(=N)N=C(N)N [metformin]
[4]
  average improvement in the HbA1c value: 1.0-1.5%

## OC[C@H]1O[C@@H](c2ccc(Cl)c(Cc3ccc(O[C@H]4CCOC4)cc3)c2)[C@H](O)[C@@H](O)[C@@H]1O [(9), 1-chloro-4-(β-D-glucopyranos-1-yl)-2-[4-((S)-tetrahydrofuran-3-yloxy)-benzyl]-benzene]
[1]; single oral dose 3 mg/kg 30 min before oral glucose load 2 g/kg
  reduction of glucose excursion (reactive glucose AUC): 51%
[3]; [5]
  reduction of glucose excursion (reactive glucose AUC): 21%
[2]; [5]
  reduction of glucose excursion (reactive glucose AUC): 21%
